From patent US7776878B2, “Heterocyclic benzylamino derivatives, their manufacture and use as pharmaceutical agents” (Hoffmann-La Roche Inc., priority 2005, dated 2010)

Assays:
[1] = target: T1, Upstate Src (p60^c-src, partially purified) (Homo sapiens, UniProt P12931); experiment: SRC-Inhibitor-Assay (time-resolved fluorescence), Src; format: biochemical; conditions: ATP 5 μM, peptide 10 μM, enzyme 2.5 U/mL, 15 min pre-incubation at 15° C.
T1 construct: purchased UBI, Upstate Biotech, Inc
From the text: (§1) The activity of the compounds according to this invention as inhibitors for the src-family tyrosine kinases was shown by using the following assay.
(§2) SRC-Inhibitor-Assay Parameters:
(§3) Eu-labelled phosphotyrosine antibody:—for Lck Cisbio Mab PT66-K, • for Src EG&G Wallac PT66 Eu-W1024 (all commercially available).
(§4) Peptides: Ro: NH2-A-E-E-E-I-Y-G-E-F-E-A-K-K-K-K-CONH2, and • Ja133-Ro: Ja133-G-Aminocaprylic acid-A-E-E-E-I-Y-G-E-F-E-A-K-K-K-K-CONH2, wherein Ja133 is LightCycler-Red 640-N-hydroxy succinimide ester; • whereby both peptides were synthesized by an optimized solid phase peptide synthesis protocol (Merrifield, Fed. Proc. Fed. Amer. Soc. Exp. Biol. 21 (1962) 412) on a Zinsser SMP350 peptide synthesizer. Shortly, the peptide was assembled on 160 mg (22.8 μmol scale) of a Rink-Linker modified polystyrene solid phase by repeatedly conjugating an twenty fold excess of amino acids each protected by temporary piperidine labile Fmoc- and permanent acid labile tert-Bu-, BOC- and O-tert-Bu-groups depending on the side chain function. The substrate sequence AEEEIYGEFEAKKKK was N-terminal additionally mounted with the spacer amino acids Aminocaprylic acid and Glycin. After cleavage of the N-terminal temporary protecting group the still attached and protected peptide was labeled with a 1.5 fold amount of LightCycler-Red 640-N-hydroxy succinimide ester (purchased from Roche Diagnostics GmbH) and triethylamine. After 3 hrs. the resin was washed with Dimethylformamide and Isopropanol until the eluates of the blue resin got colourless. […] The substrate was finally isolated by a preparative reverse phase HPLC purification. The purification yielded 12.2 mg RP-HPLC single peak pure blue material (lyophilisate). The identity was proven by MALDI mass spectroscopy [2720.0].
(§5) Enzymes: Upstate Lck (p56^lck, active), Upstate Src (p60^c-src, partially purified) were purchased from UBI, Upstate Biotech, Inc.
(§6) Time-resolved Fluorescence Assay: Reader: Perkin Elmer, Wallac Viktor 1420-040 multilabel counter; Liquid handling system: Beckman Coulter, Biomek 2000.
(§7) ATP, Tween™ 20, 4-(2-hydroxyethyl)-l-piperazineethanesulfonic acid (HEPES) were purchased from Roche Molecular Biochemicals, MgCl2 and MnCl2 were purchased from Merck Eurolab, Tris(2-carboxyethyl)phosphine hydrochloride (TCEP) was purchased from Pierce, 384 Well low volume fluorescence plates was purchased from Falcon.
(§8) At first the enzyme is pre-incubated for 15 min. at 15° C. in aqueous solution with corresponding amounts of inhibitors according to this invention. Then the phosphorylation reaction is started by adding a reaction mixture, containing ATP, Peptide and PT66, and subsequent shaking. The proceeding of this reaction is immediately monitored using time resolved fluorescence spectroscopy in a suitable well plate reader.
(§9) The IC50-values can be obtained from the reaction rates by using a non-linear curve fit (XLfit software (ID Business Solution Ltd., Guilford, Surrey, UK))

[2] = target: T2, Upstate Lck (p56^lck, active) (Homo sapiens, UniProt P06239); experiment: SRC-Inhibitor-Assay (time-resolved fluorescence), Lck; format: biochemical; conditions: ATP 5 μM, peptide 10 μM, enzyme 2.5 U/mL, 15 min pre-incubation at 15° C.
T2 construct: purchased UBI, Upstate Biotech, Inc
From the text: as §1, §2, §3, §4, §5, §6, §7, §8, §9

T1 sequence (P12931 whole entry): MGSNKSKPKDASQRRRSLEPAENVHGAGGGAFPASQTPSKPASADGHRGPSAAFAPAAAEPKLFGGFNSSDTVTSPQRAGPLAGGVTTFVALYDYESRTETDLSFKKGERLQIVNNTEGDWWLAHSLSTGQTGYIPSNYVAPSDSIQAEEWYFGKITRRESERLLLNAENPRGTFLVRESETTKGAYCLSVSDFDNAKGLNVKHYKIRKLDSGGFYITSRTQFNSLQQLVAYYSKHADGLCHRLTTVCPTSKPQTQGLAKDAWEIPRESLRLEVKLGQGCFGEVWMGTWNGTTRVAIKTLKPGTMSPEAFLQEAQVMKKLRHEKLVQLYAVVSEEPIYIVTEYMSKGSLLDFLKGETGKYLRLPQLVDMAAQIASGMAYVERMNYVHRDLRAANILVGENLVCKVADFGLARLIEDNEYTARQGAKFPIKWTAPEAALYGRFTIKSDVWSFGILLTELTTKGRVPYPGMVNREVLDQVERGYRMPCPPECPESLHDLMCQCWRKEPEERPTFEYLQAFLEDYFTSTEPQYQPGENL
T2 sequence (P06239 whole entry): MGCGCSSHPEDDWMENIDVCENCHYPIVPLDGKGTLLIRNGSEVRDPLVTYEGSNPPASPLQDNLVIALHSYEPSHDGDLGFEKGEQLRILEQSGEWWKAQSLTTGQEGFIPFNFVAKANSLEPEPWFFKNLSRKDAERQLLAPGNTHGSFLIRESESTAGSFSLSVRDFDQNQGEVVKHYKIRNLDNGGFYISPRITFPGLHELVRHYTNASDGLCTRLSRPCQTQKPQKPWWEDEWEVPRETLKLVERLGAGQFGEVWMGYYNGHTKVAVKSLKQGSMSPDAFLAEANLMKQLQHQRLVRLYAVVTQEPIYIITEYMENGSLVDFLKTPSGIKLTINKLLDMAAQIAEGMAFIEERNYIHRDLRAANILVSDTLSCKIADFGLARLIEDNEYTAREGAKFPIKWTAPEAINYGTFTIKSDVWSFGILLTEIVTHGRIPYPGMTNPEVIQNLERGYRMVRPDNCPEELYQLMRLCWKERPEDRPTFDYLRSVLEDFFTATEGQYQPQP

SMILES | IC50 [1] | IC50 [2]
CC(Nc1cnc2[nH]c(-c3ccccc3)nc2c1)c1ccccc1 (stereo not drawn) [Example 1-1, (1-Phenyl-ethyl)-(2-phenyl-3H-imidazo[4,5-b]pyridin-6-yl)-amine] | 500 to 1500 nM | 1000 to 5000 nM
COCCOc1cccc(-c2cc3cc(NCc4ccccc4)cnc3[nH]2)c1 [Example 2-1, Benzyl-{2-[3-(2-methoxy-ethoxy)-phenyl]-1H-pyrrolo[2,3-b]pyridin-5-yl}-amine] | 500 to 1500 nM | 100 to 1000 nM
COCCOc1cccc(-c2cc3cc(NCc4ccccc4C)cnc3[nH]2)c1 [Example 2-2, {2-[3-(2-Methoxy-ethoxy)-phenyl]-1H-pyrrolo[2,3-b]pyridin-5-yl}-(2-methyl-benzyl)-amine] | 131 nM | 757 nM
c1ccc(CNc2cnc3[nH]c(-c4ccccc4)cc3c2)cc1 [Example 2-3, Benzyl-(2-phenyl-1H-pyrrolo[2,3-b]pyridin-5-yl)-amine] | 10 to 500 nM | 1000 to 5000 nM
Cc1ccccc1CNc1cnc2[nH]c(-c3ccccc3)cc2c1 [Example 2-4, (2-Methyl-benzyl)-(2-phenyl-1H-pyrrolo[2,3-b]pyridin-5-yl)-amine] | 10 to 500 nM | 100 to 1000 nM
CC(=O)Nc1cccc(-c2cc3cc(NCc4ccccc4)cnc3[nH]2)c1 [Example 2-5, N-[3-(5-Benzylamino-1H-pyrrolo[2,3-b]pyridin-2-yl)-phenyl]-acetamide] | 10 to 500 nM | 100 to 1000 nM
CC(=O)Nc1cccc(-c2cc3cc(NCc4ccccc4C)cnc3[nH]2)c1 [Example 2-6, N-{3-[5-(2-Methyl-benzylamino)-1H-pyrrolo[2,3-b]pyridin-2-yl]-phenyl}-acetamide] | 31 nM | 223 nM
CC(=O)Nc1ccc(-c2cc3cc(NCc4ccccc4)cnc3[nH]2)cc1 [Example 2-7, N-[4-(5-Benzylamino-1H-pyrrolo[2,3-b]pyridin-2-yl)-phenyl]-acetamide] | 10 to 500 nM | 100 to 1000 nM
CC(=O)Nc1ccc(-c2cc3cc(NCc4ccccc4C)cnc3[nH]2)cc1 [Example 2-8, N-{4-[5-(2-Methyl-benzylamino)-1H-pyrrolo[2,3-b]pyridin-2-yl]-phenyl}-acetamide] | 10 to 500 nM | 100 to 1000 nM
